Reference: EP3865489A1, “SPIROCYCLIC INHIBITORS OF HEPATITIS B VIRUS” (priority 2020, dated 2021)

system: HBV; assay: Anti-HBV activity in vitro: extracellular HBV DNA quantified by direct qPCR in HepAD38 cells; type: cell-based; conditions: Hepatitis B virus, doxycycline-free medium, 96 hours at 37°C, reported as EC50 threshold value, read-out: HBV inh EC50
Source text: HepAD38 cell line (Ladner et al., Antimicrob Agents Chemother, 1997, 41, 1715-20) was used for HBV inhibition assays. HepAD38 is a subclone, derived from Hepatoblastoma cell line HepG2 (ATCC® Number: HB-8065™), that expresses HBV genome under the transcriptional control of a tetracycline-responsive promoter in a TET-OFF system: addition of tetracycline (TET) or doxycycline suppresses HBV replication, while its removal switches on the process allowing HBV viral particles release in the cell supernatant. HepAD38 cell line is maintained in DMEM/F12, supplemented with 10% of fetal bovine serum, 1% of glutamine, 1% of penicillin/streptomycin, 0.4 mg/ml G418 and 0,3 ug/ml tetracycline. For the HBV inhibition assay, doxycycline-free medium is used in order to allow virion production.
HBV inhibition activity in vitro was performed in 96 multiwell plates. During the initial (primary) screening, compounds were first tested in triplicates at concentrations of 0.02 µM, 0.1µM, 0.5µM and 1µM. For selected compounds, an 8-point dose-response curve was obtained using 1:2 serial dilutions (starting from 0.01µM, 0.1µM, 0.4µM or 5 µM, depending on the degree of inhibition observed during the primary screening). From the dose-response curves, half maximal effective concentration (EC50) could be calculated (see also below).
In more detail, compounds - typically dissolved in DMSO stock solutions - were diluted to 2x the final desired concentration in 100 µl of the above medium (without doxycycline) and plated in three replicates in the 96-well plates. […]
Plates were then incubated 96 hours at 37°C and then subjected to cell viability assays and extracellular HBV quantification, in order to evaluate both the cytotoxic potential and the antiviral activity of compounds. Cytotoxicity was assessed by a commercial fluorescence assay that measures the metabolic activity of cells, directly related to cell viability (Cell Titer Blue, Promega). Anti-HBV activity was evaluated by quantification of extracellular HBV DNA with direct qPCR. […]

Structure (SMILES)	EC50
C[C@H](NC(=O)C(=O)N1CCC2(COc3c(cn(C)c3C(=O)Nc3ccc(F)c(F)c3)S(=O)(=O)N2)C1)C(F)(F)F (stereo in doubt) [Example E1, N-(3,4-difluorophenyl)-7'-methyl-1-(2-oxo-2-(((S)-1,1,1-trifluoropropan-2-yl)amino)acetyl)-2'H,4'H,7'H-spiro[pyrrolidine-3,3'-pyrrolo[3,4-b][1,4,5]oxathiazepine]-6'-carboxamide 1',1'-dioxide]	< 500 nM
C[C@H](NC(=O)C(=O)N1CCC2(COc3c(c(Cl)n(C)c3C(=O)Nc3ccc(F)c(F)c3)S(=O)(=O)N2)C1)C(F)(F)F (stereo in doubt) [Example E3, 8'-chloro-N-(3,4-difluorophenyl)-7'-methyl-1-(2-oxo-2-(((S)-1,1,1-trifluoropropan-2-yl)amino)acetyl)-2'H,4'H,7'H-spiro[pyrrolidine-3,3'-pyrrolo[3,4-b][1,4,5]oxathiazepine]-6'-carboxamide 1',1'-dioxide]	< 500 nM
Cc1nnc(C(=O)N2CCC3(COc4c(cn(C)c4C(=O)Nc4ccc(F)c(F)c4)S(=O)(=O)N3)C2)o1 (stereo not drawn) [Example E2, N-(3,4-difluorophenyl)-7'-methyl-1-(5-methyl-1,3,4-oxadiazole-2-carbonyl)-2'H,4'H,7'H-spiro[pyrrolidine-3,3'-pyrrolo[3,4-b][1,4,5]oxathiazepine]-6'-carboxamide 1',1'-dioxide]	< 500 nM
